# Experimental data taken from patent US7485669B2, “Blockade of sodium channels by phenol derivatives” (B. Braun Melsungen AG, priority 2000, dated 2009).
# Read-outs that look alike come from different tables or passages of the source.
# Assays:
# [1] = target: T1, human skeletal muscle sodium channels (Homo sapiens, UniProt P35499); assay: Whole-cell voltage-clamp of heterologously expressed human skeletal muscle sodium channels in HEK 293 cells; format: cell-based; settings: for time constant of channel inactivation τh: 40 ms steps −100 mV to 0 mV, control 0.43±0.08 ms; for frequency-dependent block: additional fall relative to the first pulse: 100 Hz train, −100 mV to 0 mV
# T1 construct: expressed in transfected cells
# Source text: The sodium channel blocking potency effects of different phenol derivatives with methyl and halogen substituents have been studied on heterologously expressed human skeletal muscle sodium channels. The phenol derivatives encompassed by formula (I) are either commercially available or can be synthesized by conventional standard laboratory methods.
# Wild type α-subunits of human muscle sodium channels were heterologously expressed in human embryonic kidney (HEK 293) cells, a stable cell line since […] (American Tissue Culture Collection CRL 1573). Transfection was performed using calcium phosphate precipitation (Graham & Van der Eb, Virology, 52 (1973) 456-467). Permanent expression was achieved by selection for resistance to the aminoglycoside antibiotic geneticin G418 (Life Technology, Eggenstein, Germany) (Mitotic et al., J. Physiol., 478 (1994) 395-402). Successful channel expression was verified electrophysiologically. The clone has been used in several investigations (Haeseler et al.,Br. J. Pharmacol., 128 (1999) 1259-67; Haeseler et al., Br. J. Pharmacol. 130 (2000) 1321-1330; Mitrovic et al., ibid.).
# 3,5-dimethyl-4-chlorophenol (according to the invention) and 3-methylphenol (not according to the invention) were purchased from Sigma Chemicals, Deisenhofen, Germany; 4-chloro-2-methylphenol (not according to the invention) and 4-chlorophenol (not according to the invention) were from FLUKA, Deisenhofen, Germany. 3,5-Dimethyl-4-chlorophenol was prepared as a 1 M stock solution in methanol; 4-chloro-2-methylphenol, 4-chlorophenol, and 3-methylphenol were dissolved directly in the bath solution immediately before the experiments. Concentrations were calculated from the amount injected into the glass vials. Drug-containing solutions were protected from light and were vigorously vortexed for 60 min. The solution was applied via a glass polytetrafluoroethylene perfusion system and a stainless steel superfusion pipette. The bath solution contained (mM) NaCl 140, MgCl2 1.0, KCl 4.0, CaCl2 2.0, Hepes 5.0, dextrose 5.0. Patch electrodes contained (mM) […] 130, MgCl2 2.0, EGTA 5.0, Hepes 10. All solutions were adjusted to 290 mosm/l by the addition of mannitol and to pH 7.4 by the addition of CsOH.
# Standard whole-cell voltage-clamp experiments (Hamill et al., Pfuegers Arch., 391 (1981) 85-100) were performed at 20° C. Each experiment consisted of test recordings with the drug present at only one concentration, and of drug-free control recordings before and after the test. Each whole-cell patch was exposed to one test concentration only. At least four experiments were performed at each concentration. The amount of the diluent methanol corresponding to the test concentration of 3,5-dimethyl-4-chlorophenol was added to the control solution. Patched cells were lifted into the visible stream of either bath solution or test solution, applied via a two-channel superfusion pipette close to the cell. To ensure adequate adjustment of the application device, one test experiment in distilled water reducing inward sodium current to zero was performed every 6-10 experiments.
# For data acquisition and further analysis we used the EPC9 digitally-controlled amplifier in combination with Pulse and Pulse Fit software (HEKA Electronics, Lambrecht, Germany). The EPC9 provides automatic subtraction of capacitive and leakage currents by means of a prepulse protocol. The data were filtered at 10 kHz and digitized at 20 μs per point. Input resistance of the patch pipettes was at 1.8-2.5 MΩ. Only small cells with capacitances of 9-15 pF were used; residual series resistance (after 50% compensation) was 1.2-2.5 MΩ; experiments with a rise in series resistance were rejected. The time constant of the voltage settling within the membrane (residual series resistance×cell capacitance) was less than 35 μs. […]
# [2] = target: heterologously expressed muscle sodium channels (Homo sapiens, UniProt P35499); settings: −100 mV; Fan et al. 1996; read-out: IC50 for block of heterologously expressed muscle sodium channels at −100 mV; cited from earlier work
# [3] = IC50 for block of inward sodium current at a holding potential of −150 mV, holding potential −150 mV, 10 ms pulse to 0 mV
# [4] = IC50 for block of sodium currents on depolarization from -100 mV to 0 mV, holding potential −100 mV, test pulse to 0 mV
# T1 sequence (P35499 whole entry): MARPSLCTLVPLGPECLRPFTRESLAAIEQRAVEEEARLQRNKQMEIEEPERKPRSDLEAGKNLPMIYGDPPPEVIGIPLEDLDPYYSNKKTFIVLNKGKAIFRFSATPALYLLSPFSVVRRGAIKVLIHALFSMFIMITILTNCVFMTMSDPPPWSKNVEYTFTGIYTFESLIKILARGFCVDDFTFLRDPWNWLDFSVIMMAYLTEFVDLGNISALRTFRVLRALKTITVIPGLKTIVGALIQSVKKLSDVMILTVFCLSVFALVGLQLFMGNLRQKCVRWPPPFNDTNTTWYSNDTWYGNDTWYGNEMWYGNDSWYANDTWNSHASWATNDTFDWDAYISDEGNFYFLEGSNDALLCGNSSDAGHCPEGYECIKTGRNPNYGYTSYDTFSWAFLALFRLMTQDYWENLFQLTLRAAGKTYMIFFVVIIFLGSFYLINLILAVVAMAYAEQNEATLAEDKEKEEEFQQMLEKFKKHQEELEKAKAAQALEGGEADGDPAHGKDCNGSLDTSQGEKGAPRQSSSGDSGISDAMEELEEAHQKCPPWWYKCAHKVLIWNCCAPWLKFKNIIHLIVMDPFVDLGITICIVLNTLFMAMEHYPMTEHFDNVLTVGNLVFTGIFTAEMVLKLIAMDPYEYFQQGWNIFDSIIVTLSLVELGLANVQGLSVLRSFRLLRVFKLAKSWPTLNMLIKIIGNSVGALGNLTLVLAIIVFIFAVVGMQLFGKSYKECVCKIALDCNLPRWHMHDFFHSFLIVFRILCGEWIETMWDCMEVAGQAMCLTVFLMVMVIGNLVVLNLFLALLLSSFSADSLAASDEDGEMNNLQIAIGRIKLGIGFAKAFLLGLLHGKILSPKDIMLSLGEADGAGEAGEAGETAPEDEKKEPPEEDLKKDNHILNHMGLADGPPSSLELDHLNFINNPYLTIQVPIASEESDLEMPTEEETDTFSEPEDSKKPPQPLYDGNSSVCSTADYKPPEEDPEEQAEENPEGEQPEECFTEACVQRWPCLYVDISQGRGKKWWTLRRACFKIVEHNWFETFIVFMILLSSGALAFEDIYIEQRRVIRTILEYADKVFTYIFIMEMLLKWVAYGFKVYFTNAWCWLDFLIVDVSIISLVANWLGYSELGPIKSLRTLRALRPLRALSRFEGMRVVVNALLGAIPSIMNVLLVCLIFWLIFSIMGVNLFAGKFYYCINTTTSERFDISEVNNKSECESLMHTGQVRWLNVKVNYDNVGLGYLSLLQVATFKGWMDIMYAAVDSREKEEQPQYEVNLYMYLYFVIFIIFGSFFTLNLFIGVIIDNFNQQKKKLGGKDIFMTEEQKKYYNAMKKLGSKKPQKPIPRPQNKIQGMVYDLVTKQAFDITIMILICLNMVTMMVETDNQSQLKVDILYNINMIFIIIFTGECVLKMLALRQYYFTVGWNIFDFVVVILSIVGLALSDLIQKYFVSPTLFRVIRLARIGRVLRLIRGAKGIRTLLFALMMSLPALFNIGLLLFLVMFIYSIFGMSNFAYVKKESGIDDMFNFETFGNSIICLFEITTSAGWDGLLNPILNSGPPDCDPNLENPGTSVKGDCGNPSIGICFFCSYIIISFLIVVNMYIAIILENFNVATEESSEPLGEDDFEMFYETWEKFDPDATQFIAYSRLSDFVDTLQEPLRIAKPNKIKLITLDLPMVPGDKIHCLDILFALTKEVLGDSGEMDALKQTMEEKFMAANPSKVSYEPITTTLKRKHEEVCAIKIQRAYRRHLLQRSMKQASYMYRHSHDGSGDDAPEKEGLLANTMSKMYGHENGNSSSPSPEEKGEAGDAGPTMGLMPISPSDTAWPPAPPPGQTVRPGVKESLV
# heterologously expressed muscle sodium channels, sequence (P35499 whole entry): as above
compound,measurement,setting,value
"Cc1cc(O)cc(C)c1Cl [3,5-dimethyl-4-chlorophenol]",time constant of channel inactivation τh,[1]; 50 μM drug,0.27 ± 0.02 ms
same,frequency-dependent block: additional fall relative to the first pulse,[1]; 300 μM drug,17±5%
same,Kd,"[1]; derived from drug-induced shifts in steady-state availability curves, read-out: KD for the fast-inactivated state",14 µM
same,IC50,"[1]; holding potential −100 mV, test pulse to 0 mV, read-out: IC50 for block of sodium currents on depolarization from -100 mV to 0 mV",150 µM
same,IC50,"[1]; holding potential −150 mV, 10 ms pulse to 0 mV, read-out: IC50 for block of inward sodium current at a holding potential of −150 mV",162 µM
Cc1cccc(O)c1 [3-methylphenol],time constant of channel inactivation τh,[1]; 1000 μM drug,0.30 ± 0.08 ms
same,frequency-dependent block: additional fall relative to the first pulse,[1]; 3000 μM drug,8±2%
same,IC50,[1]; [3],2400 µM
same,IC50,[1]; [4],2160 µM
Cc1cc(Cl)ccc1O [4-chloro-2-methylphenol],time constant of channel inactivation τh,[1]; 100 μM drug,0.27 ± 0.05 ms
same,frequency-dependent block: additional fall relative to the first pulse,[1]; 500 μM drug,16±5%
same,IC50,[1]; [3],316 µM
same,IC50,[1]; [4],268 µM
Oc1ccc(Cl)cc1 [4-chlorophenol],time constant of channel inactivation τh,[1]; 500 μM drug,0.23 ± 0.03 ms
same,frequency-dependent block: additional fall relative to the first pulse,[1]; 1000 μM drug,13±2%
same,IC50,[1]; [3],751 µM
same,IC50,[1]; [4],666 µM
"CCN(CC)CC(=O)Nc1c(C)cccc1C [lidocaine, 2-diethylamino-2′,6′-dimethylacetanilide]",IC50,[2],500 µM
